# How the values were obtained:
# MERTK = biological target: T1, MERTK (Homo sapiens, UniProt Q12866); experiment: TR-FRET kinase activity assay, MERTK; type: biochemical; details: for IC50: TR-FRET activity assay, ATP at Km, 60 minutes, read-out: Mer IC50
# T1 sequence (Q12866 21-999): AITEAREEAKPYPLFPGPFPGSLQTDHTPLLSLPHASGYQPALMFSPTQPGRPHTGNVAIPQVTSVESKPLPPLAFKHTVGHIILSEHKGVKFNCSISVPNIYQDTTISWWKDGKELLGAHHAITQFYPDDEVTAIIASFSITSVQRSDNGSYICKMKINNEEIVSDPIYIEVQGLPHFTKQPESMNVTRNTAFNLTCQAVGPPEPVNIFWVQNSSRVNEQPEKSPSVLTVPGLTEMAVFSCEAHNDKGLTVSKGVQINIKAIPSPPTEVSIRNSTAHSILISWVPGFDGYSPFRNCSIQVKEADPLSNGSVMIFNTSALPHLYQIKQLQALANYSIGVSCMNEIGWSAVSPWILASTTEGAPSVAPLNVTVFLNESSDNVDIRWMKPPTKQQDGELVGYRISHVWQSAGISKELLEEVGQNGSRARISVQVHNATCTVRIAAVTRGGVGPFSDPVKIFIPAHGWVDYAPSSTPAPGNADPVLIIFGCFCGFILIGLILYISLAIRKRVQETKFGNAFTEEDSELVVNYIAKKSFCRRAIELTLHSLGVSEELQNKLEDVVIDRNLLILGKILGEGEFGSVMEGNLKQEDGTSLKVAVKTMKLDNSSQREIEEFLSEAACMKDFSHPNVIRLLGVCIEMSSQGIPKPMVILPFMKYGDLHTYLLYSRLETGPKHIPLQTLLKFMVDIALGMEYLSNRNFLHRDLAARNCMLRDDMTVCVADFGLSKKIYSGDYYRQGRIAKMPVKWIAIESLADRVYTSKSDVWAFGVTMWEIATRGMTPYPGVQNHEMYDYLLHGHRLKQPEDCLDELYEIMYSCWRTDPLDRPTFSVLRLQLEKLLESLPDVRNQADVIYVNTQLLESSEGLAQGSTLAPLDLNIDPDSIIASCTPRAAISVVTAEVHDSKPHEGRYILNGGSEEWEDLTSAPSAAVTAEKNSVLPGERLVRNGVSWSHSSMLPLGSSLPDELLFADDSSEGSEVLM
# Method in brief: (§1)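 Inhibition is measured as loss of phospho-peptide formation: kinase, fluorescent tyrosine peptide and compound are combined, ATP is added at Km, and the reaction proceeds 60 min at RT in pH 7.5 HEPES buffer. An EDTA stop and Eu-labelled phospho-specific antibody allow TR-FRET detection for IC50 fitting.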
# AXL = biological target: T2, AXL (Homo sapiens, UniProt P30530); experiment: TR-FRET kinase activity assay, AXL; type: biochemical; details: ATP at Km, 60 minutes
# T2 sequence (P30530 26-894): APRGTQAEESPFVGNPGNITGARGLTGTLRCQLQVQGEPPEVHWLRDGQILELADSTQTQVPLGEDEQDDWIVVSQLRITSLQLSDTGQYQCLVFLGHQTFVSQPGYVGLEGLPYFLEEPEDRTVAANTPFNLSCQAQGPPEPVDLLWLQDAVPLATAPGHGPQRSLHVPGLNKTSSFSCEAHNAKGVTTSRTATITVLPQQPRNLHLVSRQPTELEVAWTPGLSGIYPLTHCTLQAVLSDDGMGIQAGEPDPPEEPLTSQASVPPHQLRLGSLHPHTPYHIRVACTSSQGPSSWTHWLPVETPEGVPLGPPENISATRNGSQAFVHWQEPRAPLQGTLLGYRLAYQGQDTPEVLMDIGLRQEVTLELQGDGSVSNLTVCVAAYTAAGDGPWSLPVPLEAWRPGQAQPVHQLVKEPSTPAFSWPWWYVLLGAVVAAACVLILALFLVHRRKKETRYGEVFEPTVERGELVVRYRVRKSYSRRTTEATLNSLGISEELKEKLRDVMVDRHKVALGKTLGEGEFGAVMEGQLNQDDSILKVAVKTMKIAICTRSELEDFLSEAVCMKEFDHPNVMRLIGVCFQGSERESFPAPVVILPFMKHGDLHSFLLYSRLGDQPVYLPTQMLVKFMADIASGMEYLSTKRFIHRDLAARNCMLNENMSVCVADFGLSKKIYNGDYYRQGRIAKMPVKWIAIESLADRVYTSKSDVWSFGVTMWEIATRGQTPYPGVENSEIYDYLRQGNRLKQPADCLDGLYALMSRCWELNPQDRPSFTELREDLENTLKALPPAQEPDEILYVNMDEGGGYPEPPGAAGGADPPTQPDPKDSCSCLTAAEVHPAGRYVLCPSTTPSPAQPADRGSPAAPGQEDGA
# Method in brief: as §1
# [1] = ratio calculated as FLT3 IC50/Mer IC50
# [2] = ratio of Mer to FLT3: FLT3 IC50/Mer IC50
SMILES,IC50 (MERTK) [nM],FLT3/Mer ratio (FLT3 IC50/Mer IC50) (MERTK; [1]),IC50 (AXL) [nM],FLT3/Mer ratio (FLT3 IC50/Mer IC50) (MERTK; [2])
COC[C@H](C)Nc1ncc2c(-c3cnn(C4COC4)c3)cc(-c3cccc(O)c3)n2n1 [Compound 511],≤ 100,++ (“++” represents a ratio of between 10 and 100),1000 to 10000,
COC[C@H](C)Nc1ncc2c(-c3cnn(C4COC4)c3)cc([C@@H]3CC[C@@H](O)C(C)(C)C3)n2n1 [Compound 570],≤ 100,++ (“++” represents a ratio of between 10 and 100),100 to 1000,
COC[C@H](C)Nc1ncc2c(-c3cnn(C4COC4)c3)cc(C3CCC(=O)NC3)n2n1 (stereo partly drawn) [Compound 526],≤ 100,++ (“++” represents a ratio of between 10 and 100),1000 to 10000,
C[C@H](Nc1ncc2c(-c3cnn(C4COC4)c3)cc([C@H]3CC[C@H](O)CC3)n2n1)C(F)(F)F [Compound 510],≤ 100,+++ (“+++” represents a ratio of >100),100 to 1000,
CCN(C(=O)N1CCN(c2cc(-c3cc([C@H]4CC[C@H](O)CC4)n4nc(N[C@@H](C)COC)ncc34)ccn2)CC1)C(C)C [Compound 514],≤ 100,+++ (“+++” represents a ratio of >100),≤ 100,
COC[C@H](C)Nc1ncc2c(-c3cnn(C4COC4)c3)cc([C@@H]3CC[C@H](O)[C@@H](C)C3)n2n1 [Compound 588],≤ 100,++ (“++” represents a ratio of between 10 and 100),100 to 1000,
C[C@H](Nc1ncc2c(-c3cnn(C(C)(C)C(=O)N4CCOCC4)c3)cc([C@H]3CC[C@H](O)CC3)n2n1)C(F)(F)F [Compound 537],≤ 100,+++ (“+++” represents a ratio of >100),≤ 100,
COC[C@H](C)Nc1ncc2c(-c3cnn(C4COC4)c3)cc(C3CCSCC3)n2n1 [Compound 522],≤ 100,+++ (“+++” represents a ratio of >100),100 to 1000,
COC[C@H](C)Nc1ncc2c(-c3cnn(C(C)(C)C(=O)N4CCOCC4)c3)cc([C@H]3CC[C@@](C)(O)CC3)n2n1 [Compound 561],≤ 100,+++ (“+++” represents a ratio of >100),≤ 100,
COC[C@H](C)Nc1ncc2c(-c3ccnc(N4CCOCC4)c3)cc([C@H]3CC[C@@](C)(O)CC3)n2n1 [Compound 548],≤ 100,+++ (“+++” represents a ratio of >100),≤ 100,
COCC(C)Nc1ncc2c(-c3ccnc(N4CCOC(C(C)(C)O)C4)c3)cc(C3CCC(O)CC3)n2n1 (stereo not drawn) [Compound 559],≤ 100,+++ (“+++” represents a ratio of >100),≤ 100,
COC[C@H](C)Nc1ncc2c(-c3cnn(C(C)(C)C(=O)N4CCOC(C(C)(C)O)C4)c3)cc([C@H]3CC[C@H](O)CC3)n2n1 (stereo partly drawn) [Compound 556],≤ 100,+++ (“+++” represents a ratio of >100),≤ 100,
"CC[C@H](C)Nc1ncc2c(C3CCNCC3)cc([C@H]3CC[C@H](O)CC3)n2n1 [Compound 135, (trans)-4-(2-((S)-sec-butylamino)-5-(piperidin-4-yl)pyrrolo[2,1-f][1,2,4]triazin-7-yl)cyclohexanol]",≤ 100,,≤ 100,+++ (“+++” represents a ratio of >100)
CC(Nc1ncc2c(-c3cnn(C4COC4)c3)cc(C3CCC(O)CC3)n2n1)c1cccnc1 (racemic) [Compound 536],≤ 100,+++ (“+++” represents a ratio of >100),100 to 1000,
COCC(C)Nc1ncc2c(-c3ccc4[nH]ccc4c3)cc(C3CCC(O)CC3)n2n1 (stereo not drawn) [Compound 539],≤ 100,+++ (“+++” represents a ratio of >100),100 to 1000,
COC[C@H](C)Nc1ncc2c(-c3ccc([S@@](C)(=N)=O)nc3)cc([C@H]3CC[C@H](O)CC3)n2n1 [Compound 533],≤ 100,+++ (“+++” represents a ratio of >100),≤ 100,
C[C@@H](Nc1ncc2c(-c3cnn(C4COC4)c3)cc([C@H]3CC[C@H](O)CC3)n2n1)C(F)(F)F [Compound 527],≤ 100,+++ (“+++” represents a ratio of >100),100 to 1000,
COC[C@H](C)Nc1ncc2c(-c3ccnc(N4CCOCC4)c3)cc([C@H]3CC[C@@H](O)CC3)n2n1 [Compound 546],≤ 100,+++ (“+++” represents a ratio of >100),≤ 100,
COC[C@H](C)Nc1ncc2c(-c3ccc(CN4CCOCC4)cc3)cc([C@H]3CC[C@H](O)CC3)n2n1 [Compound 140],≤ 100,,≤ 100,+++ (“+++” represents a ratio of >100)
CC(COc1ccccc1)Nc1ncc2c(-c3cnn(C4COC4)c3)cc([C@H]3CC[C@H](O)CC3)n2n1 (mixture of isomers) [Compound 528],≤ 100,+++ (“+++” represents a ratio of >100),≤ 100,

# Now from value to molecule:
IC50 (MERTK) [nM],FLT3/Mer ratio (FLT3 IC50/Mer IC50) (MERTK; [1]),IC50 (AXL) [nM],FLT3/Mer ratio (FLT3 IC50/Mer IC50) (MERTK; [2]),SMILES
≤ 100,+++ (“+++” represents a ratio of >100),100 to 1000,,COC[C@H](C)Nc1ncc2c(-c3ccnc([S@@](C)(=N)=O)c3)cc([C@H]3CC[C@H](O)CC3)n2n1 [Compound 574]
≤ 100,+++ (“+++” represents a ratio of >100),≤ 100,,COC[C@H](C)Nc1ncc2c(-c3cnn(C4COC4)c3)cc([C@@H]3CC[C@H](O)[C@H](C)C3)n2n1 [Compound 587]
≤ 100,+++ (“+++” represents a ratio of >100),≤ 100,,C[C@@H](CC(F)(F)F)Nc1ncc2c(-c3cncc([S@](C)(=N)=O)c3)cc([C@H]3CC[C@H](O)CC3)n2n1 [Compound 582]
≤ 100,+++ (“+++” represents a ratio of >100),≤ 100,,COC[C@H](C)Nc1ncc2c([C@H]3CC[C@@H](C(=O)N4CCC(F)(F)CC4)CC3)cc([C@H]3CC[C@H](O)CC3)n2n1 [Compound 577]
≤ 100,+++ (“+++” represents a ratio of >100),≤ 100,,COC[C@H](C)Nc1ncc2c(-c3ccnc(C(F)(F)F)c3)cc([C@H]3CC[C@H](O)CC3)n2n1 [Compound 584]
≤ 100,+++ (“+++” represents a ratio of >100),≤ 100,,COC[C@H](C)Nc1ncc2c(-c3cnn(C4COC4)c3)cc([C@@H]3CC[C@@H](O)[C@H](C)C3)n2n1 [Compound 589]
≤ 100,+++ (“+++” represents a ratio of >100),≤ 100,,C[C@@H](CC(F)(F)F)Nc1ncc2c(-c3ccnc([S@](C)(=N)=O)c3)cc([C@H]3CC[C@H](O)CC3)n2n1 [Compound 580]
